Common to all, as to assay: greenhouse post-emergence herbicidal test
The test system of one test is PAPRH. Format: in vivo, Papaver rhoeas. Details: key: rating on a scale from 0 to 100. The procedure, abridged:
(§1)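 Combination activity judged against additive expectation by Colby, E=X+Y−(X·Y/100), from 0–100 damage ratings taken 20 days post-spray. Plants at 1–15 cm in loamy sand (69.9% sand) were sprayed with components formulated as 10% w/w emulsion concentrate in water.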

In another test the test system is MATCH. It is filed as in vivo, Matricaria recutita. Details: key to herbicidal activity against MATCH found: rating on a scale from 0 to 100. Particulars: post emergence. Put shortly:
as §1

Another test deals with AMBEL. It is filed as in vivo, Ambrosia artemisiifolia. The note with it: 9.375 g/ha a.i. The arrangement: key: rating on a scale from 0 to 100. Here is the method:
(§2) The culture containers used were plastic pots containing medium loamy sand with approximately 4.6% of humus and 69.9% sand as substrate. The seeds of the test plants were sown separately for each species.
(§3) For the post-emergence treatment, the test plants were grown to a plant height of from 1 to 15 cm, depending on the plant habit, and only then treated with the active compounds which had been suspended or emulsified in water. To this end, the test plants were either sown directly, and grown in the same containers, or they were first grown separately as seedlings and transplanted into the test containers a few days prior to treatment.
(§4) Depending on the species, the plants were kept at 10-25° C. and 20-35° C., respectively.
(§5) The test period extended over 1 to 3 weeks. During this time, the plants were tended and their response to the individual treatments was evaluated 20 days after treatment except mentioned otherwise.
(§6) Evaluation was carried out using a scale from 0 to 100. 100 means no emergence of the plants, or complete destruction of at least the above-ground parts, and 0 means no damage or normal course of growth.
(§7) The respective stated components A and B, and, if appropriate, C, were formulated as a 10% by weight strength emulsion concentrate and, with addition of the amount of solvent system, introduced into the spray liquor used for applying the active compound. In the examples, the solvent used was water.
(§8) In the examples below, using the method of S. R. Colby (1967) “Calculating synergistic and antagonistic responses of herbicide combinations”, Weeds 15, p. 22 ff., the value E, which is expected if the activity of the individual active compounds is only additive, was calculated. E=X+Y−(X·Y/100)

The subject of a further test is ERICA. Format: in vivo, Conyza canadensis. Particulars: Erigeron canadensis, post-emergence, 480 h, post emergence; 9.375 g/ha a.i.; read-out: herbicidal activity against ERICA found. Put shortly:
as §1

Another test concerns SASKR. Format: in vivo, Salsola kali. The arrangement: key: scale 0 to 100. Here is the method:
as §2, §3, §4, §5, §6, §7, §8

Another test concerns GERDI. It is filed as in vivo, Geranium dissectum. Details: key to herbicidal activity against GERDI found: rating on a scale from 0 to 100. Particulars: post emergence. The procedure, abridged: as §1
The next test concerns STEME. Format: in vivo, Stellaria media. The arrangement: key: scale 0 to 100. Here is the method:
as §2, §3, §4, §5, §6, §7, §8

A further test has as its system POLCO. Format: in vivo, Polygonum convolvulus. Details: key to herbicidal activity against POLCO found: rating on a scale from 0 to 100. Particulars: post emergence. The procedure, abridged:
(§9)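 Herbicidal activity scored on a 0 (no damage) to 100 (plants destroyed) scale, usually 20 days after water-based spraying of 1–15 cm plants grown in loamy sand at 10-25 °C or 20-35 °C depending on species. Components were applied from 10% emulsion concentrates; Colby's E=X+Y−(X·Y/100) gives the additive expectation.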

The next test has as its system GALAP. It is filed as in vivo, Galium aparine. Details: key to herbicidal activity against GALAP found: rating on a scale from 0 to 100. The note with it: post emergence; 400 g/ha a.i. The procedure, abridged: as §9
Another test deals with POLPE. It is filed as in vivo, Persicaria maculosa. The arrangement: key: scale 0 to 100. Here is the method: as §2, §3, §4, §5, §6, §7, §8
In the next test the test system is LAMAM. It is filed as in vivo, Lamium amplexicaule. The arrangement: key: scale 0 to 100. Here is the method:
as §2, §3, §4, §5, §6, §7, §8

The next test has as its system CONAR. It is filed as in vivo, Convolvulus arvensis. The arrangement: key: rating on a scale from 0 to 100. Here is the method: as §2, §3, §4, §5, §6, §7, §8
A further test concerns VIOAR. Format: in vivo, Viola arvensis. Details: key to herbicidal activity against VIOAR found / herbicidal activity against VIOLA found: rating on a scale from 0 to 100. Particulars: post emergence. Put shortly: as §9
The next test concerns POLAV. It is filed as in vivo, Polygonum aviculare. The arrangement: key: rating on a scale from 0 to 100. The protocol:
as §2, §3, §4, §5, §6, §7, §8

The test system of the next test is ABUTH. Format: in vivo, Abutilon theophrast. The arrangement: key to herbicidal activity against ABUTH found: rating on a scale from 0 to 100. Particulars: post emergence; 200 g/ha a.i. Put shortly:
as §1

For the next test, the system named is IPOHE. It is filed as in vivo, Ipomoea hederacea. Details: key to herbicidal activity against IPOHE found: rating on a scale from 0 to 100. The note with it: post emergence, 20 days after treatment. The procedure, abridged: as §9
A further test has as its system CHEAL. Format: in vivo, Chenopodium album. The note with it: a.i. g/ha: I.1 15.6, B.190 62.5, 20 days after treatment. The protocol:
as §2, §3, §4, §5, §6, §7, §8

In a further test the test system is AMARE. It is filed as in vivo, Amaranthus retroflexus. The protocol: as §2, §3, §4, §5, §6, §7, §8
[1] abbreviates: a.i. g/ha: I.1 31.25, B.190 62.5, 20 days after treatment.
Where [2] appears, read: a.i. g/ha: I.1 15.6, B.190 62.5, 20 days after treatment.
Where [3] appears, read: a.i. g/ha: I.1 31.25, bentazon Na 125, 20 days after treatment.

In the case of `CS(=O)(=O)c1ccc(C(=O)C2C(=O)CCCC2=O)c([N+](=O)[O-])c1` [B.101, mesotrione], in the test on PAPRH (9.375 g/ha a.i.), the “herbicidal activity against PAPRH found” value came out at 35. In addition, the pest or weed control at 9.375 g/ha in the test with MATCH (Matricaria chamomilla, post-emergence, 480 h, 9.375 g/ha a.i., read-out: herbicidal activity against MATCH found) was found to be 75%; in the test on ERICA, 80%; in the test on GERDI (Geranium dissectum, post-emergence, 480 h, 9.375 g/ha a.i., read-out: herbicidal activity against GERDI found), 0%. Besides, in the test on AMBEL, the “herbicidal activity against AMBEL found” value is on record as 80. Further, the “herbicidal activity against SASKR found” value with SASKR (9.375 g/ha a.i.) was determined as 75.
Consider `Cc1cc(Cl)ccc1OCC(=O)O` [B.164, MCPA], for which the “herbicidal activity against PAPRH found” value in the test with PAPRH (100 g/ha a.i.) worked out at 60; in the test with PAPRH (200 g/ha a.i.), 65. For the same compound, the “herbicidal activity against STEME found” value with STEME (100 g/ha a.i.) was determined as 50; with STEME (200 g/ha a.i.), 60; with STEME (400 g/ha a.i.), 80. The “herbicidal activity against POLCO found” value in the test on POLCO (200 g/ha a.i.) and in the test on POLCO (400 g/ha a.i.) was 50 in each case. Also, the “herbicidal activity against MATCH found” value in the test on MATCH (400 g/ha a.i.) was found to be 50. Also, in the test on GALAP, the “herbicidal activity against GALAP found” value was 30. For the same compound, the “herbicidal activity against POLPE found” value in the test on POLPE (200 g/ha a.i.) was 65; with POLPE (400 g/ha a.i.) it was 80. The “herbicidal activity against LAMAM, found” value amounted to 65 in the test with LAMAM (200 g/ha a.i.) and 70 in the test with LAMAM (400 g/ha a.i.). In addition, the “herbicidal activity against CONAR found” value in the test on CONAR (200 g/ha a.i.) and in the test with CONAR (400 g/ha a.i.) was 90 in each case. For the same compound, the “herbicidal activity against VIOAR found” value is 60 in the test on VIOAR (100 g/ha a.i.), 65 with VIOAR (200 g/ha a.i.) and 70 in the test on VIOAR (400 g/ha a.i.). Besides, the “herbicidal activity against POLAV found” value with POLAV (100 g/ha a.i.) was found to be 70; with POLAV (200 g/ha a.i.), 85; with POLAV (400 g/ha a.i.) it was 85. Further, the “herbicidal activity against ABUTH found” value in the test on ABUTH turned out to be 80. In addition, the “herbicidal activity against GERDI found” value with GERDI (100 g/ha a.i.) turned out to be 65.
Turning to `Cc1ccc(NC(=O)N(C)C)cc1Cl` [B.190, chlorotoluron], the “herbicidal activity against STEME found” value with STEME (setting [1]) came to 70%. The “herbicidal activity against POLCO found” value with POLCO (setting [2]) and with POLCO (setting [1]) was 50% each time. Also, the “herbicidal activity against IPOHE found” value was determined as 60% with IPOHE (a.i. g/ha: I.1 15.6, B.190 62.5) and 60% in the test with IPOHE (a.i. g/ha: I.1 31.25, B.190 62.5). In addition, the “herbicidal activity against CHEAL found” value in the test with CHEAL amounted to 95%. The “herbicidal activity against AMARE found” value with AMARE (setting [2]) and in the test on AMARE (setting [1]) was 40% in each case. In the test on POLAV (setting [2]), the “herbicidal activity against POLAV found” value came to 50%. Further, the “herbicidal activity against GERDI found” value in the test on GERDI (setting [1]) is on record as 60%.
In the case of `CC(C)N1C(=O)c2ccccc2[N-]S1(=O)=O.[Na+]` [bentazon Na, bentazon-sodium], the “herbicidal activity against POLCO found” value with POLCO (setting [3]) was determined as 40%. The “herbicidal activity against AMARE found” value in the test on AMARE (setting [3]) turned out to be 75%. The “herbicidal activity against POLAV found” value with POLAV (setting [3]) came out at 40%.
Take `Cc1nn(C)c(O)c1C(=O)c1ccc(C(F)(F)F)cc1S(C)(=O)=O` [pyrasulfatole]: the “herbicidal activity against PAPRH found” value in the test on PAPRH (10 g/ha a.i.) was 50; in the test on PAPRH (20 g/ha a.i.), 65; in the test with PAPRH (40 g/ha a.i.), 65. Besides, the “herbicidal activity against MATCH found” value with MATCH (10 g/ha a.i.) and in the test on MATCH (40 g/ha a.i.) was 50 throughout. In the test on SASKR (10 g/ha a.i.), the “herbicidal activity against SASKAR found” value was determined as 90. Moreover, the “herbicidal activity against CONAR found” value in the test on CONAR (10 g/ha a.i.) worked out at 60; with CONAR (20 g/ha a.i.), 65; with CONAR (40 g/ha a.i.) it was 85. Besides, the results for the “herbicidal activity against VIOAR found” value in the test on VIOAR (10 g/ha a.i.), in the test on VIOAR (20 g/ha a.i.) and in the test with VIOAR (40 g/ha a.i.) were 0, 40 and 60, respectively. Besides, the “herbicidal activity against POLAV found” value in the test on POLAV (20 g/ha a.i.) worked out at 70. In the test on GERDI (40 g/ha a.i.), the “herbicidal activity against GERDI found” value is listed as 50.

Source of the values: US10881110B2, “Herbicidal compositions comprising isoxazolo[5,4-b]pyridines” (BASF SE, priority 2014, dated 2021).
